Literature values in patent publication US20050214389A1, “Beta-carotene enriched extract from water hyacinth eichhornia crassipes” (Council of Scientific and Industrial Research, priority 2004, published 2005).

Columns and labels:
polyamine oxidase = details: for inhibition of the enzyme: purified polyamine oxidase from leaves of water hyacinth; for Km: substrate of purified polyamine oxidase from leaves of water hyacinth
Enterobacter sp. F2 = details: concentrations of from 10-7 to 10-2 mol/L

| Structure (SMILES) | chemotaxis (attraction of F2) (Enterobacter sp. F2) | further results |
| --- | --- | --- |
| NCCCCCCCCN [Octamethylenediamine] |  | inhibition of the enzyme (polyamine oxidase): strong inhibitors |
| C[C@H](N)C(=O)O [alanine] | strongly attracted |  |
| N=C(N)NCCC[C@H](N)C(=O)O [arginine] | not |  |
| NC(=O)C[C@H](N)C(=O)O [asparagine] | not |  |
| N[C@@H](CS)C(=O)O [cysteine] | not |  |
| NCCCC(=O)O [gamma amino butyric acid] | strongly attracted |  |
| N[C@@H](CCC(=O)O)C(=O)O [glutamate] | some degrees |  |
| NC(=O)CC[C@H](N)C(=O)O [glutamine] | not |  |
| NCC(=O)O [glycine] | strongly attracted |  |
| N[C@@H](Cc1c[nH]cn1)C(=O)O [histidine] | some degrees |  |
| CC[C@H](C)[C@H](N)C(=O)O [isoleucine] | not |  |
| CC(C)C[C@H](N)C(=O)O [leucine] | strongly attracted |  |
| NCCCC[C@H](N)C(=O)O [lysine] | not |  |
| CSCC[C@H](N)C(=O)O [methionine] | strongly attracted |  |
| O=C(O)c1cc[c]([Hg][Cl])cc1 [p-chloromercuribenzoate] |  | inhibition of the enzyme (polyamine oxidase): without effect |
| N[C@@H](Cc1ccccc1)C(=O)O [phenylalanine] | not |  |
| O=C(O)[C@@H]1CCCN1 [proline] | not |  |
| CCN(CC)CCCC(C)Nc1c2ccc(Cl)cc2nc2ccc(OC)cc12 (stereo not shown) [quinacrine] |  | inhibition of the enzyme (polyamine oxidase): strong inhibitors |
| N[C@@H](CO)C(=O)O [serine] | strongly attracted |  |
| NCCCCNCCCN [spermidine] |  | Km (polyamine oxidase): 28 mM |
| NCCCNCCCCNCCCN [spermine] |  | Km (polyamine oxidase): 20 mM |
| C[C@@H](O)[C@H](N)C(=O)O [threonine] | some degrees |  |
| N[C@@H](Cc1c[nH]c2ccccc12)C(=O)O [tryptophan] | not |  |
| N[C@@H](Cc1ccc(O)cc1)C(=O)O [tyrosine] | not |  |
| CC(C)[C@H](N)C(=O)O [valine] | strongly attracted |  |
